These are literature values, as cited in US20120148662A1, “Formulation” (priority 2010, published 2012).

For series [1] the following is noted: dosed conventionally.

Turning to `CCC(CC)CC1(C(=O)Nc2ccccc2SC(=O)C(C)C)CCCCC1` [dalcetrapib, S-[2-([[1-(2-ethylbutyl)-cyclohexyl]-carbonyl]amino)phenyl]2-methylpropanethioate], the aqueous solubility result was “extremely low”. Besides, the oral bioavailability entry in series [1] is “low”.
